Measurements taken from patent publication US11718624B2, “Solid state forms of substituted pyrazolopyrimidines and uses thereof” (KSQ Therapeutics, Inc., priority 2020, dated 2023).

Experiment: Co-crystal screening experiments with Formula II (Table 17)
Format: physicochemical
Conditions: XRPD
Protocol: Additional co-crystal screens were carried out to identify further solid state forms of Formula (II).
Differential scanning calorimetry (DSC) was carried out with a TA Instruments Q2000 instrument (closed aluminum sample pan aluminum sample pan with a pinhole in the lid, heating rate 20 K/min). The melting point is understood as the peak maximum.
Light microscopy was performed on a Leitz Orthoplan polarized microscope part #130880, generally a 10×10 magnification was applied.
X-ray powder diffraction (XRPD) was carried out with a Stoe Stadi P diffractometer equipped with a Mythen1K detector operating with Cu-Kα1 radiation. The measurements with this instrument were performed in transmission at a tube voltage of 40 kV and 40 mA tube power. A curved Ge monochromator allows testing with Cu-Kα1 radiation. The following parameters were set: 0.02° 2θ step size, 12 s step time, 1.5-50.5° 2θ scanning range, and 1° 2θ detector step (detector mode in step scan). For a typical sample preparation about 10 mg of sample was placed between two acetate foils and mounted into a Stoe transmission sample holder. The sample was rotated during the measurement. All sample preparation and measurement was done in an ambient air atmosphere.
TG-FTIR measurements were carried out with a Netzsch Thermo-Microblanace TG209 coupled to a Bruker FTIR Spectrometer Vector 22 (sample pans with a pinhole, N2 atmosphere, heating rate 10° C./min to 300 or 350° C.).
The starting material was a freebase form of Formula (II).

Result (co-crystal screening) (Experiment 1: material as received): Free base
Result (co-crystal screening) (Experiment 6: benzoic acid (1:1.1 eq), EtOAc 0.5 mL/heptane 3 mL, agitated 1 day): Free base
Result (co-crystal screening) (Experiment 16: gallic acid in acetone, evaporation, glassy residue treated with water/isopropanol): Free base
Result (co-crystal screening) (Experiment 17: 300 mg, 430 mg gallic acid, EtOH, evaporated three days): Gallic acid
SMILES: COc1ncnc(C2CC2)c1-c1ncc2cnn(Cc3ccc(-c4nc(C(F)(F)F)cn4C(C)C)cc3)c2n1 [Compound of Formula (II), 6-(4-cyclopropyl-6-methoxypyrimidin-5-yl)-1-(4-(1-isopropyl-4-(trifluoromethyl)-1H-imidazol-2-yl)benzyl)-1H-pyrazolo[3,4-d]pyrimidine]
